# According to US20240343813A1, “COMBINATION THERAPY AND RELATED METHODS” (Bicara Therapeutics Inc., priority 2023, published 2024):
# Assays:
# [1] = system: TGFβ-induced hKRAS G12C resistant lung cancer cell line (H1792); experiment: CellTiter Glo cytotoxicity in TGFβ-induced hKRAS G12C inhibitor resistant cells; assay type: cell-based; conditions: long-term TGFβ treated H1792 cells compared to control H1792 cells (wild type); 72 hours
# Description: Reports have shown that hKRAS G12C inhibitor efficacy is higher in cancer cells with a low epithelial-mesenchymal transition (EMT) signature compared to a high EMT signature. hTGFβ is known to induce EMT through canonical and non-canonical pathways in various cancers.
# Briefly, hKRAS G12C inhibitor resistance was induced in H1792 cells by treating the cells with hTGFβ (4 ng/ml) for at least two weeks. […] Cytotoxicity was evaluated using the CellTiter Glo® Luminescent Cell Viability Assay according to manufacturer's instructions (Promega) (as described in Example 6.3).
# H358 lung cancer cells = experiment: Long-term hKRAS G12C inhibitor treatment-induced resistance; assay type: cell-based; conditions: H358 treated with increasing concentrations of AMG510 for about one month; vs control (wild type) H358
# Description: The effect of long duration treatment with a hKRAS G12C inhibitor on acquired hKRAS G12C inhibitor resistance was assessed utilizing an in vitro lung cancer model (H358). Briefly, H358 lung cancer cells were treated with increasing concentrations of the hKRAS G12C inhibitor AMG510 for about one month and cytotoxicity induced by AMG510 subsequently evaluated.
structure (smiles),measurement,setting,value
"C=CC(=O)N1CCN(c2nc(=O)n(-c3c(C)ccnc3C(C)C)c3nc(-c4c(O)cccc4F)c(F)cc23)[C@@H](C)C1 [AMG510, 6-fluoro-7-(2-fluoro-6-hydroxyphenyl)-(1M)-1-[4-methyl-2-(propan-2-yl)pyridin-3-yl]-4-[(2S)-2-methyl-4-(prop-2enoyl)piperazin-1-yl]pyrido[2,3-d]pyrimidin-2 (1H)-one]",cytotoxicity in response to AMG510 treatment,[1],less cytotoxicity
same,acquired KRAS G12C inhibitor resistance (percent viability),H358 lung cancer cells,developed KRAS G12C inhibitor (AMG510) resistance
